Measured values published in ChEMBL document CHEMBL3352799, “Arylazolyl(azinyl)thioacetanilides. Part 16: Structure-based bioisosterism design, synthesis and biological evaluation of novel pyrimidinylthioacetanilides as potent HIV-1 inhibitors” (Bioorg Med Chem, 2014).
Active and inactive are the calls of the source. The calls are words filed in the database; no cut-off is given here.

Key:
[1] = Selectivity index, ratio of CC50 for human MT4 cells to EC50 for HIV1 3B infected in human MT4 cells; type: toxicity, cell-based; conditions: read-out: Ratio CC50/EC50
[2] = system: Human immunodeficiency virus 1; experiment: Antiviral activity against HIV1 3B infected in human MT4 cells assessed as reduction in virus-induced cytopathogenicity by MTT assay; type: functional, organism-based; conditions: Human immunodeficiency virus 1, 3B
[3] = system: Human immunodeficiency virus 1; experiment: Antiviral activity against HIV1 RES056 expressing reverse transcriptase K103N/Y181C double mutant infected in human MT4 cells assessed as reduction in virus-induced cytopathogenicity by MTT assay; type: functional, organism-based; conditions: Human immunodeficiency virus 1, RES056, MT4
[4] = Selectivity index, ratio of CC50 for human MT4 cells to EC50 for HIV1 RES056 expressing reverse transcriptase K103N/Y181C double mutant infected in human MT4 cells; type: toxicity, cell-based; conditions: read-out: Ratio CC50/EC50
[5] = Cytotoxicity against human MT4 cells by MTT assay; type: cell-based
[6] = system: Human immunodeficiency virus 2; experiment: Antiviral activity against HIV2 ROD infected in human MT4 cells assessed as reduction in virus-induced cytopathogenicity by MTT assay; type: functional, organism-based; conditions: ISOLATE ROD
[7] = target: Human immunodeficiency virus type 1 reverse transcriptase (Human immunodeficiency virus 1, UniProt Q72547); experiment: Inhibition of HIV1 reverse transcriptase assessed as inhibition of biotin-dUTP incorporation using hybrid poly (A).oligo (dT)15 template primer incubated for 1 hr at 37 degC by ELISA method

NS(=O)(=O)c1ccc(NC(=O)CSc2nncnc2-c2cccc3ccccc23)c(Br)c1
selectivity ratio [1]: 1290

COC(=O)c1ccc(NC(=O)CSc2ncncc2-c2cccc3ccccc23)c(Br)c1
EC50 [2]: 2.42 µM | selectivity ratio [1]: 69 | EC50 [3]: > 168 µM | selectivity ratio [4]: < 1 | CC50 [5]: 168 µM | inhibition [6]: inactive

O=C(CSc1nnccc1-c1cccc2ccccc12)Nc1ccccc1[N+](=O)[O-]
selectivity ratio [1]: 2150

NS(=O)(=O)c1ccc(NC(=O)CSc2ncncc2-c2cccc3ccccc23)c(Br)c1
EC50 [2]: 0.18 µM | selectivity ratio [1]: 132 | EC50 [3]: 3.9 µM | selectivity ratio [4]: 6 | CC50 [5]: 24.1 µM | inhibition [6]: inactive

COC(=O)c1ccc(NC(=O)CSc2ncncc2-c2cccc3ccccc23)c(Cl)c1
EC50 [2]: 2.84 µM | selectivity ratio [1]: 54 | EC50 [3]: > 154 µM | selectivity ratio [4]: < 1 | CC50 [5]: 154 µM | inhibition [6]: inactive

COC(=O)c1ccc(NC(=O)CSc2ncncc2-c2cccc3ccccc23)c([N+](=O)[O-])c1
EC50 [2]: 3.58 µM | selectivity ratio [1]: ≥ 55 | EC50 [3]: > 196 µM | selectivity ratio [4]: 1 | CC50 [5]: ≥ 196 µM | inhibition [6]: inactive

CCOC(=O)c1ccc(NC(=O)CSc2ncncc2-c2cccc3ccccc23)c(Br)c1
EC50 [2]: 4.46 µM | selectivity ratio [1]: 47 | EC50 [3]: > 211 µM | selectivity ratio [4]: < 1 | CC50 [5]: 211 µM | inhibition [6]: inactive

COc1ccc(Cn2cc(CSc3ncncc3-c3cccc4ccccc34)nn2)cc1
EC50 [2]: > 31.1 µM | selectivity ratio [1]: < 1 | EC50 [3]: > 31.2 µM | selectivity ratio [4]: < 1 | CC50 [5]: 31.2 µM | inhibition [6]: inactive

O=C(CSc1ncncc1-c1cccc2ccccc12)Nc1ccc(C(=O)O)cc1Cl
EC50 [2]: 8.13 µM | selectivity ratio [1]: 13 | EC50 [3]: > 108 µM | selectivity ratio [4]: < 1 | CC50 [5]: 108 µM | inhibition [6]: inactive

O=C(CSc1ncncc1-c1cccc2ccccc12)Nc1ccc(C(=O)O)nc1Cl
EC50 [2]: 24.2 µM | selectivity ratio [1]: 5 | EC50 [3]: > 127 µM | selectivity ratio [4]: < 1 | CC50 [5]: 127 µM | inhibition [6]: inactive

CC(C)Nc1cccnc1N1CCN(C(=O)c2cc3cc(NS(C)(=O)=O)ccc3[nH]2)CC1 [DELAVIRDINE]
EC50 [2]: 0.49 µM | selectivity ratio [1]: > 89 | EC50 [3]: > 43.8 µM | selectivity ratio [4]: 1 | CC50 [5]: > 43.8 µM

Cc1ccnc2c1NC(=O)c1cccnc1N2C1CC1 [NEVIRAPINE]
EC50 [3]: > 14.4 µM | CC50 [5]: > 14.4 µM

CONC(=O)c1ccc(NC(=O)CSc2ncncc2-c2cccc3ccccc23)c(Cl)c1
EC50 [2]: 0.75 µM | selectivity ratio [1]: 175 | EC50 [3]: > 131 µM | selectivity ratio [4]: < 1 | CC50 [5]: 131 µM | inhibition [6]: inactive

Brc1ccccc1Cn1cc(CSc2ncncc2-c2cccc3ccccc23)nn1
EC50 [2]: > 39.4 µM | selectivity ratio [1]: < 1 | EC50 [3]: > 39.4 µM | selectivity ratio [4]: < 1 | CC50 [5]: 39.4 µM | inhibition [6]: inactive

O=C(CSc1nccnc1-c1ccccc1Cl)Nc1ccccc1[N+](=O)[O-]
selectivity ratio [1]: 23

O=C1Nc2ccc(Cl)cc2[C@@](C#CC2CC2)(C(F)(F)F)O1 [EFAVIRENZ]
EC50 [2]: 0.0053 µM | selectivity ratio [1]: > 1180 | EC50 [3]: 0.23 µM | selectivity ratio [4]: > 27 | CC50 [5]: > 6.3 µM

O=C(CSc1ncncc1-c1cccc2ccccc12)Nc1ccccc1[N+](=O)[O-]
EC50 [2]: 0.91 µM | selectivity ratio [1]: 25 | EC50 [3]: > 22.5 µM | selectivity ratio [4]: < 1 | CC50 [5]: 22.5 µM | inhibition [6]: inactive

O=C(CSc1ncncc1-c1cccc2ccccc12)Nc1ccc(C(=O)NO)cc1Cl
EC50 [2]: 0.63 µM | selectivity ratio [1]: 8 | EC50 [3]: > 4.8 µM | selectivity ratio [4]: < 1 | CC50 [5]: 4.8 µM | inhibition [6]: inactive

CCOC(=O)CNC(=O)c1ccc(NC(=O)CSc2ncncc2-c2cccc3ccccc23)c(Cl)c1
EC50 [2]: 0.15 µM | selectivity ratio [1]: 684 | EC50 [3]: 30.6 µM | selectivity ratio [4]: 3 | CC50 [5]: 105 µM | IC50 [7]: 1.31 µM | inhibition [6]: inactive

O=C(O)c1ccc(-n2cc(CSc3ncncc3-c3cccc4ccccc34)nn2)cc1
EC50 [2]: > 95.9 µM | selectivity ratio [1]: < 1 | EC50 [3]: > 95.9 µM | selectivity ratio [4]: < 1 | CC50 [5]: 95.9 µM | inhibition [6]: inactive

CCOC(=O)c1ccc(NC(=O)CSc2ncncc2-c2cccc3ccccc23)c(Cl)c1
EC50 [2]: 4.55 µM | selectivity ratio [1]: 43 | EC50 [3]: > 195 µM | selectivity ratio [4]: < 1 | CC50 [5]: 195 µM | inhibition [6]: inactive

CCOC(=O)C(C)NC(=O)c1ccc(NC(=O)CSc2ncncc2-c2cccc3ccccc23)c(Cl)c1 (configuration not stated)
EC50 [2]: 2.76 µM | selectivity ratio [1]: 13 | EC50 [3]: > 35.6 µM | selectivity ratio [4]: < 1 | CC50 [5]: 35.6 µM | inhibition [6]: inactive
